Laboratory results reported in patent US5216142A, “Anti-virals” (Efamol Holdings plc, priority 1989, dated 1993).
Values after ≈ are worked out from the molar mass of the structure shown. “Also recorded” adds a separate entry of the source. Like-named read-outs stand apart in the source and are kept apart here.

Experiments:
[1] = test system: herpes simplex virus Type I; experiment: Inactivation of virus (30 minutes incubation, plaque assay); assay type: cell-based, Type 1, Troisbel strain; details: for Virus titre (inactivation of virus): 30 minutes, control 5.4 × 10^4 (GLA-alcohol), 4.5 × 10^4 (GLA-AZT)
Description: 1. A virus solution containing 2×10^5 pfu/ml is prepared in phosphate buffered saline (Dulbecco's A).
2. The compound to be tested is made up in Dulbecco's medium A in a suitable range of dilutions.
3. Equal volumes of the virus and drug solution are mixed together. Control solutions without drug are also used.
4. The virus and drug are incubated for an appropriate period of time, in this example, thirty minutes.
5. The numbers of active viral particles in the solution are assayed as in items 4 and 5 under A.
The results are shown below (Table 6). In the Table, the figures are concentrations of viral particles present after incubation of the virus for 30 minutes with solutions of the drugs.

LAV-2ROD = experiment: Anti-HIV activity assay, LAV-2ROD (MT-4 cells, MTT method); assay type: cell-based; details: for Selectivity index (SI): CD50/ED50, LAV-2ROD; for EC50: MT4, 120 h, read-out: ED50 (50% effective dose)
Description: (§1) Results in relation to HIV virus were obtained by the method of Pauwels et al, Journal of Virological Methods 20, 309 to 321 (1988), as follows:
(§2) MT-4 cells (2.5×10^4 /well) were infected with HIV (100 CCID50) and incubated in the presence of varying concentrations of the test compounds (added immediately after virus infection). After five days incubation at 37° C. in a CO2 incubator, the number of viable cells was assessed by the MTT (tetrazolium) method. Anti-viral activity and cytotoxicity of the compounds are expressed as ED50 (50% effective dose) and CD50 (50% cytotoxic dose), respectively. SI (selectivity index=CD50 /ED50.
(§3) These are given in Table 8 and Table 9 below in relation to HTLV-IIIB and LAV-2ROD viruses.

herpes simplex = experiment: Topical application to herpetic lesion; assay type: in vivo, human; details: ointment or cream 2% by weight, 1 to 5 mg/cm^2 three times daily for one week; after three days
Description: Example (6) Ointment or cream for topical administration against herpes simplex, containing 2% by weight GLA-AZT. It may be applied to a human afflicted with a herpetic lesion at the afflicted sites at a rate of 1 to 5 mg/cm^2 three times daily for a period of one week.

in vitro = assay type: cell-based; details: human, mt-4 cells, CD50 (50% cytotoxic dose)
Description: as §1, §2

MT-4 cells = experiment: in vitro; assay type: cell-based; details: human, 120 h
Description: as §1, §2

HTLV-IIIB = experiment: Anti-HIV activity assay, HTLV-IIIB (MT-4 cells, MTT method); assay type: cell-based; details: for Selectivity index (SI): CD50/ED50, HTLV-IIIB; for EC50: Human immunodeficiency virus 1, MT4, 120 h, MT-4 cells, five days, HTLV-IIIB, read-out: ED50 (50% effective dose)
Description: as §1, §2, §3

[2] = test system: herpes simplex virus Type I (HSV I); experiment: Inhibition of virus replication (plaque assay, BHK-21 cells); assay type: cell-based, Type 1, Troisbel strain; details: for Viral titre (inhibition of replication): control 9.0 × 10^8; for log reduction at 0.1 µg/mL: 0.1 mg/l; for log reduction at 0.5 µg/mL: 0.5 mg/l
Description: 1. Mono-layers of baby hamster kidney cells (BHK-21) are prepared in Petri dishes containing ETC medium (Eagle's minimal essential medium +10% tryptose phosphate broth +10% new born calf serum).
2. After incubation the medium is poured off to leave the layer of cells attached to the Petri dish. A solution containing virus, specifically herpes simplex virus Type I (HSV I) for example, in ETC medium is then added to the dish and incubated with intermittent rocking for one hour to allow the virus to adsorb to the cells of the mono-layer. Unadsorbed virus is then removed by pouring off the virus-containing medium and washing twice with new sterile medium. Then new medium is added to each Petri dish. At this stage various concentrations of drug can be added to the medium.
3. […] First the dishes are frozen to -70° C. and thawed to disrupt the mono-layer and break up the cells. Then the medium and the disrupted cells are transferred to bijou bottles and sonicated to break down the cells completely and to release all the virus particles the cells contain. The sonicated medium is then diluted with fresh sterile ETC medium to give concentrations of the original Petri dish fluid of 10^-2, 10^-4, 10^-6 and 10^-8.
4. The number of virus particles (plaque forming units) in the dilutions is then assayed. A standard number of BHK cells (usually 8×10^6) is added to 2 ml of the diluted solutions and incubated for one hour, with cautious, gentle shaking, and 8 ml of Eagle's minimal essential medium +2% new born calf serum + carboxymethyl cellulose is then added to the cell suspension. This medium has gelling properties which prevent spreading of the virus through the medium and which encourage the formation of discrete plaques in cell mono-layers. The medium from each dilution is then dispensed into Petri dishes and incubated for two to three days.
5. The number of plaques formed is then counted and the amount of active virus expressed as the number of plaque forming units (pfus) as follows. The medium is poured off and the cell mono-layer is fixed using 10% formol saline and stained with dilute carbol fuchsin. The number of plaques in each Petri dish is counted. Based on the dilutions, the number of plaque forming virus particles in the original solutions is calculated.
In the Table, the figures are the concentration of viral particles in pfu/ml present in the cells + medium at the end of the replication stage (3).

Absolute solubilities = assay type: physicochemical
[3] = test system: herpes simplex virus Type I (HSV I); details: cited from earlier work; for Activity against herpes viruses (in words): herpes zoster and herpes simplex
viral polymerases = details: tested lacking the phosphate groups; cited from earlier work
[4] = cited from earlier work
[5] = test system: herpes simplex virus Type I; details: known, e.g. E. de Klerk et al 1980; cited from earlier work
adenosine deaminase = details: human plasma; cited from earlier work
[6] = MT-4 cells, five days, LAV-2ROD
[7] = chloroform, organic solvent or mixture, CHCl3 98 to 99% pure, with 1% balance ethanol to stabilise, read-out: Absolute solubility in CHCl3
[8] = in water, read-out: Absolute solubility in water
[9] = Human alphaherpesvirus 1, BHK-21, 24 h, read-out: Inhibition of viral replication (log10 reduction in virus titre)

Row | Structure (SMILES) | Virucidal activity / inactivation of herpes virus (in words) [1] | % in chloroform phase (partition co-efficients, water/chloroform) | Selectivity index (SI) (LAV-2ROD) | EC50 (LAV-2ROD; [6]) | CC50 at 120 h (in vitro) | CD50 (50% cytotoxic dose) (MT-4 cells) | Selectivity index (SI) (HTLV-IIIB) | EC50 (HTLV-IIIB) | Inactivation of virus (in words) ([1]; up to 50 mg/l) | solubility (Absolute solubilities; [7]) | solubility (Absolute solubilities; [8]) | other results
1 | CCCCC/C=C\C/C=C\C/C=C\CCCCC(=O)OC[C@H]1O[C@@H](n2cc(C)c(=O)[nH]c2=O)C[C@@H]1N=[N+]=[N-] [AK 1, GLA - 3'azido-3'-deoxythymidine] | virucidal | > 99% | 9770 | 0.000858 µg/mL (≈ 0.00163 µM) | 6.03 µg/mL (≈ 11.4 µM) | 8.3825 µg/mL | 7993 | 0.000754 µg/mL (≈ 0.00143 µM) | – | – | – | Virus titre (inactivation of virus) ([1]; 5 μg/ml): 2.7 × 10^3; Virus titre (inactivation of virus) ([1]; 25 μg/ml): < 1.0 × 10^2; log reduction at 1 µg/mL ([1]; Human alphaherpesvirus 1, 0.5 h, 1 mg/l, read-out: Inactivation of virus (log10 reduction in virus titre)): 1; log reduction at 5 µg/mL ([1]; Human alphaherpesvirus 1, 0.5 h, 5 mg/l, read-out: Inactivation of virus (log10 reduction in virus titre)): 2; Virucidal activity / inactivation of herpes virus (in words) ([1]; listed as AZT-GLA): able both to inactivate the herpes virus; Virucidal activity / inactivation of herpes virus (in words) ([1]; listed as GLA-AZT): more effective; Reduction in the size of the lesion (herpes simplex): Reduction in the size of the lesion is noted; Viral titre (inhibition of replication) ([2]; 25 μg/ml (47.5 × 10^-6 molar)): 1.02 × 10^8 pfu/ml; Viral titre (inhibition of replication) ([2]; 50 μg/ml (95.0 × 10^-6 molar)): < 1.0 × 10^2 pfu/ml; Inhibition of herpes virus replication (in words) ([2]; listed as AZT-GLA): to inhibit its replication; Inhibition of herpes virus replication (in words) ([2]; listed as GLA-AZT): able to inhibit viral replication effectively; also recorded: gains the property of inhibiting herpes virus replication; Inhibition of viral replication (in words) ([2]; up to 100 mg/l): no inhibition
2 | CCCCC/C=C\C/C=C\C/C=C\CCCCC(=O)OCCOCn1cnc2c(=O)[nH]c(N)nc21 [AK 5] | lacking in this activity | > 99% | < 1 | > 40 µg/mL | 17.2 µg/mL (≈ 35.4 µM) | 18.7751 µg/mL | < 1 | > 40 µg/mL | no inactivation | > 50000 µg/mL | 28 µg/mL (≈ 57.7 µM) | log reduction at 0.1 µg/mL [2, 9]: 1; log reduction at 0.5 µg/mL [2, 9]: 2.2
3 | CCCCC/C=C\C/C=C\CCCCCCCC(=O)OCCOCn1cnc2c(=O)[nH]c(N)nc21 [AK 6] | lacking in this activity | > 99% | < 1 | > 100 µg/mL | – | – | < 1 | > 40 µg/mL | no inactivation | > 50000 µg/mL | 14 µg/mL (≈ 28.7 µM) | log reduction at 1 µg/mL ([2]; Human alphaherpesvirus 1, BHK-21, 24 h, 1 mg/l, read-out: Inhibition of viral replication (log10 reduction in virus titre)): 2.4; log reduction at 5 µg/mL ([2]; Human alphaherpesvirus 1, BHK-21, 24 h, 5 mg/l, read-out: Inhibition of viral replication (log10 reduction in virus titre)): 4.2
4 | Cc1cn([C@H]2C[C@H](N=[N+]=[N-])[C@@H](CO)O2)c(=O)[nH]c1=O [AK 7, zidovudine, reference compound] | no effect | 15% | 2928 | 0.00053 µg/mL (≈ 0.00198 µM) | 1.54 µg/mL (≈ 5.75 µM) | 1.5633 µg/mL | 4131 | 0.000372 µg/mL (≈ 0.00139 µM) | no inactivation | – | – | Activity against herpes viruses (in words) [3]: inactive; Effect on replication of herpes simplex virus (in words) ([3]; known, e.g. E. de Klerk et al 1980): no effect; Activity against viral polymerases (in words) (viral polymerases): inactive; Excreted unchanged into the urine ([4]; in vivo): Fifteen to twenty; Metabolised by hepatic glucuronidation ([4]; to 3'-azido-2'-3'-dideoxy-5'-glucuronyl thymidine): seventy five; Inhibition of herpes virus replication (in words) ([2]; listed as AZT): no effect; also recorded: not found; Inhibition of viral replication (in words) ([2]; up to 100 mg/l): No inhibition; Effect on inactivation of herpes simplex virus (in words) [5]: no effect
5 | Cc1cn2c(nc1=O)O[C@@H]1C[C@H]2O[C@@H]1CO [AK 8, Anhydrothymidine, reference compound] | no effect | 4% | 15 | 21.8 µg/mL (≈ 97.2 µM) | – | – | 59 | 13.1 µg/mL (≈ 58.4 µM) | – | – | – | Activity against herpes viruses (in words) [3]: inactive; Inactivation of virus (in words) ([1]; 10 mg/l): no inactivation; log reduction at 25 µg/mL ([1]; Human alphaherpesvirus 1, 0.5 h, 25 mg/l, read-out: Inactivation of virus (log10 reduction in virus titre)): 0.7; Inhibition of herpes virus replication (in words) [2]: no effect; Inhibition of viral replication (in words) ([2]; concentration not given, Table 7): no inhibition
6 | Nc1nc2c(ncn2COCCO)c(=O)[nH]1 [AK 9, Acyclovir, reference compound] | – | 1% | < 1 | – | 300 µg/mL (≈ 1330 µM) | 397.5805 µg/mL | < 1 | > 1000 µg/mL | no inactivation | 6 µg/mL (≈ 26.6 µM) | 1590 µg/mL (≈ 7060 µM) | Activity against viral polymerases (in words) (viral polymerases): inactive; EC50 (LAV-2ROD): > 10000 µg/mL; log reduction at 0.1 µg/mL [2, 9]: 2; log reduction at 0.5 µg/mL [2, 9]: 2.3
7 | Nc1ncnc2c1ncn2[C@H]1CC[C@@H](CO)O1 [ddA] | – | – | – | – | – | – | – | – | – | – | – | Conversion of ddA to ddI (adenosine deaminase): within minutes
